This is an account of results in paper PMC4376699, “Characterization of Binding and Inhibitory Properties of TAK-063, a Novel Phosphodiesterase 10A Inhibitor” (PLoS ONE, 2015).

Test [1] addresses T1, Phosphodiesterase 10A (PDE10A) (Rattus norvegicus, UniProt Q9QYJ6).
T1 construct: native PDE10A in rat brain sections
T1 sequence (Q9QYJ6 1-794): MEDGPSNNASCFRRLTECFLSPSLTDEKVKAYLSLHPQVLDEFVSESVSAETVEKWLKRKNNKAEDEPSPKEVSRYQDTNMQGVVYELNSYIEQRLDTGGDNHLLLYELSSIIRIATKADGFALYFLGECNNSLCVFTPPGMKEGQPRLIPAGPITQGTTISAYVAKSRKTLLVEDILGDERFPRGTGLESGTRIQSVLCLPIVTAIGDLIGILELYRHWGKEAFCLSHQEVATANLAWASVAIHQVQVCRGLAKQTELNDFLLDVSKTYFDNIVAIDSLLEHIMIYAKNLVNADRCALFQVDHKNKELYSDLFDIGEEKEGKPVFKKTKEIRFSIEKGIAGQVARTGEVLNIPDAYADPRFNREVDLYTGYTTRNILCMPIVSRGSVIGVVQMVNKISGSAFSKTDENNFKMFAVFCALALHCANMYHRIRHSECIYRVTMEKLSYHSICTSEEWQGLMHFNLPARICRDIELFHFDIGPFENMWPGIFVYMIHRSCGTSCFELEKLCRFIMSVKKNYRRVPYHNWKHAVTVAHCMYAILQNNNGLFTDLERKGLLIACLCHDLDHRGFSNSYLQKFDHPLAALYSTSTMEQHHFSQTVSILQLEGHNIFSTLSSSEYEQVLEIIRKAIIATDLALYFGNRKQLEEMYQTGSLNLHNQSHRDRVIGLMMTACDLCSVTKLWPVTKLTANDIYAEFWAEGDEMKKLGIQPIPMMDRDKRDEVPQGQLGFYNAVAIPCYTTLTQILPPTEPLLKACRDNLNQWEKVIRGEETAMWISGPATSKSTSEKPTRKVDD
In words: [3H]TAK-063 saturation binding on rat brain sections (autoradiography); Kd […] NAc shell, […] CPu.

Test [2] concerns the target T2, Phosphodiesterase PDE10A1 (Homo sapiens, UniProt Q9Y233).
T2 construct: gene PDE10A; PDE10A1
Description: enzyme inhibition panel at […] (Ricerca Biosciences), […] inhibition. Format: biochemical.

T2 sequence (Q9Y233 1-779 isoform Q9Y233-1): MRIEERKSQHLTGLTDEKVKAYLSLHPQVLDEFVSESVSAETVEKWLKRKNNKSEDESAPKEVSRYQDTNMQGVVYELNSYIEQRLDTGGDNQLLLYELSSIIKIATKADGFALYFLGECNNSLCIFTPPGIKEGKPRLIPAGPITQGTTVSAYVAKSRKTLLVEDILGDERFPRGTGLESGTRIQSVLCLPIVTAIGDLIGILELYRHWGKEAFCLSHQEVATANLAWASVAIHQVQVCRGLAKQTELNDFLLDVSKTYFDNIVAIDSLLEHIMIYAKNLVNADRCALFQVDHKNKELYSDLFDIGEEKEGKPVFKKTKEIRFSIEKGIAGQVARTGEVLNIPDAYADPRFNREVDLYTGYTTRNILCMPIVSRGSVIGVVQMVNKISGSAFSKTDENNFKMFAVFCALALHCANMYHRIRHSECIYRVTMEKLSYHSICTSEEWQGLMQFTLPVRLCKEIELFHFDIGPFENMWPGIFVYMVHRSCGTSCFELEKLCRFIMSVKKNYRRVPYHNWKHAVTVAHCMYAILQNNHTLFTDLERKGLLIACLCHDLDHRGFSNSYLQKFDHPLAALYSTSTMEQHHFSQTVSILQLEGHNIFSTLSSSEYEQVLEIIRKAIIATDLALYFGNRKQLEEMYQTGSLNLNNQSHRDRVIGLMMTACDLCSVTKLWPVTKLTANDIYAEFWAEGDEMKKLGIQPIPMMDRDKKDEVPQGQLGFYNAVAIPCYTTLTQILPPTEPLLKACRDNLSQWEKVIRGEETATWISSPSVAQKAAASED

Usually Kd stands for the constant that tells how readily two partners part at equilibrium. A high value points to lower affinity. Usually inhibition stands for the relative decrease from the control value, in per cent. In the case of `COc1cn(-c2ccc(-n3cccn3)cc2F)nc(-c2ccnn2-c2ccccc2)c1=O` [TAK-063, 1-[2-fluoro-4-(1H-pyrazol-1-yl)phenyl]-5-methoxy-3-(1-phenyl-1H-pyrazol-5-yl)-pyridazin-4(1H)-one], in test [1], the Kd was found to be 2.6 nM. Besides, the inhibition at 10 µM in test [2] worked out at 101%.
